In this assay the target is T1, human recombinant full-length fatty acid synthase (FASN) (Homo sapiens, UniProt P49327).
T1 construct: human recombinant full-length fatty acid synthase; made in house; host or cells: SF9 cells
T1 sequence (P49327 whole entry): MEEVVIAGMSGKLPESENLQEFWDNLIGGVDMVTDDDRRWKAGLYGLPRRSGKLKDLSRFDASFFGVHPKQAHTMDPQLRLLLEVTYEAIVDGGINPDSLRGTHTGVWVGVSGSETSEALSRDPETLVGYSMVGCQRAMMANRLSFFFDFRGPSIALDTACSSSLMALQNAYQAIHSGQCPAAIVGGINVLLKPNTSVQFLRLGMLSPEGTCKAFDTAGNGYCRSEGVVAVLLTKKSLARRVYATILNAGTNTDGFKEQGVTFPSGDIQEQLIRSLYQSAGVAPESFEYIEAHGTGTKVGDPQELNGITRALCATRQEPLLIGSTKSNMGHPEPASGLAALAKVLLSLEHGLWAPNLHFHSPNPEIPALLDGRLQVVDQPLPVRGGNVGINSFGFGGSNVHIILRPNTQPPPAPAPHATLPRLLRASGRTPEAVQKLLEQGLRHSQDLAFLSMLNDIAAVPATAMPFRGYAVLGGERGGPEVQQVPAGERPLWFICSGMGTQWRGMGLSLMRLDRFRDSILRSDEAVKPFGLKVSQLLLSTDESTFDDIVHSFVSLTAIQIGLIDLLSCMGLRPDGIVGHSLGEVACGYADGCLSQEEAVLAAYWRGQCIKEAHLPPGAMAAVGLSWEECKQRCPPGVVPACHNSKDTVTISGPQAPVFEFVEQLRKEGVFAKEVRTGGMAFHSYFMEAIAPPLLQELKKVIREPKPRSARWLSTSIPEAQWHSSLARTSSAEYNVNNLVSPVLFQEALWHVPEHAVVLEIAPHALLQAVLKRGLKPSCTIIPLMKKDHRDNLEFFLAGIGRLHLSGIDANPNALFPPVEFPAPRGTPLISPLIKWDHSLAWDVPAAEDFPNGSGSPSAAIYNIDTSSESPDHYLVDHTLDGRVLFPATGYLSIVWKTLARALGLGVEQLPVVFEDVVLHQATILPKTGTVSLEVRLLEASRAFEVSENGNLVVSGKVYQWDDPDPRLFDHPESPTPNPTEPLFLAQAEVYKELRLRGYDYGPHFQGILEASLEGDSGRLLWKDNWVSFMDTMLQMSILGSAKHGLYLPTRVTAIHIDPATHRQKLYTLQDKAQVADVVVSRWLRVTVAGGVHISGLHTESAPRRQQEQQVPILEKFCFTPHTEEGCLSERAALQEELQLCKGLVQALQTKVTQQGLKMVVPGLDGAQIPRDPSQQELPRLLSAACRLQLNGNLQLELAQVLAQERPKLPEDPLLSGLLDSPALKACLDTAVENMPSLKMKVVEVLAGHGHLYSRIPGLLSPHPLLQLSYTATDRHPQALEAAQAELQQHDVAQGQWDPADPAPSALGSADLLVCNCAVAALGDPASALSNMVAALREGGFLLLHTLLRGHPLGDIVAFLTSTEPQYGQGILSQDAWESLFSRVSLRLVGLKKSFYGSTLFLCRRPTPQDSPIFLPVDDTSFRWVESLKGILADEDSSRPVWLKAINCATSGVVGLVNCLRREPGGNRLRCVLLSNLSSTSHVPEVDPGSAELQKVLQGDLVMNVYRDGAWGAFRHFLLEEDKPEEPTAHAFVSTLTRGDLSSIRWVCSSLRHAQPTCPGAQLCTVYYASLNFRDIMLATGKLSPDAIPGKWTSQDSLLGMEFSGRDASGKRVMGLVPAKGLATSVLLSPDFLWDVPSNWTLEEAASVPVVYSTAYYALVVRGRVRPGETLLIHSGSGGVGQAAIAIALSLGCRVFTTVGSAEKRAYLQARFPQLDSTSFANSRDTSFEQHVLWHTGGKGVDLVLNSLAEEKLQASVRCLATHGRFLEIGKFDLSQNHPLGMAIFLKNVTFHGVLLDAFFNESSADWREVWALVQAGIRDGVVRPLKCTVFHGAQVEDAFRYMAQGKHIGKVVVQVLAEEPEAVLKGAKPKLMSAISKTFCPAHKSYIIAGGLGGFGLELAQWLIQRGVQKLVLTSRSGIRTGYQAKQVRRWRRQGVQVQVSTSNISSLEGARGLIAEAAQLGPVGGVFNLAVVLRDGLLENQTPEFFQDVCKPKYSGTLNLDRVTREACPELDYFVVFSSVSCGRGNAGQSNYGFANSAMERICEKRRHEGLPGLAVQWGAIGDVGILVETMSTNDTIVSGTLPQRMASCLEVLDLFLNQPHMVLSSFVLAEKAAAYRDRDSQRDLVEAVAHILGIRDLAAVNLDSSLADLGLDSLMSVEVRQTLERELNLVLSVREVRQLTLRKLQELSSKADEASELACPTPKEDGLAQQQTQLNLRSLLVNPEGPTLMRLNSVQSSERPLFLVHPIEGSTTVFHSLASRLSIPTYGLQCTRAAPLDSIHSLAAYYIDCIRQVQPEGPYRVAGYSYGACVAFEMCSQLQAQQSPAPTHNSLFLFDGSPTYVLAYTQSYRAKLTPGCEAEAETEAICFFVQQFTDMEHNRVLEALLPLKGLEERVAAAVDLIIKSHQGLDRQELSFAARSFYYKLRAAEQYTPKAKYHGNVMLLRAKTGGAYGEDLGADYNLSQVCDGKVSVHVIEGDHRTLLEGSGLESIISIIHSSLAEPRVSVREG
The assay can be described thus: Biochemical activity testing of human fatty acid synthase FASN (NADPH fluorescence intensity assay). Particulars: NADPH fluorescence decrease (ex 340 nm / em 460 nm), 30 minutes at room temperature, read-out: IC50 FASN (enzyme assay). The source says: aq (aqueous), h (hour), g (gram), L (liter), mg (milligram), MHz (Megahertz), (melting point), eq (equivalent), mL (milliliter), L (microliter), ACN (acetonitrile), AcOH (acetic acid), CDCl3 (deuterated chloroform), CD3OD (deuterated methanol), CH3CN (acetonitrile), c-hex (cyclohexane), DCC (dicyclohexyl carbodiimide), DCM (dichloromethane), DIC (diisopropyl carbodiimide), DIEA (diisopropylethyl-amine), DMF (dimethylformamide), DMSO (dimethylsulfoxide), DMSO-d6 (deuterated dimethylsulfoxide), EDC (1-(3-dimethyl-amino-propyl)-3-ethylcarbodiimide), ESI (Electro-spray ionization), EtOAc (ethyl acetate), Et2O (diethyl ether), EtOH (ethanol), HATU (dimethylamino-([1,2,3]triazolo[4,5-b]pyridin-3-yloxy)-methylene]-dimethylammonium hexafluorophosphate), HPLC (High Performance Liquid Chromatography), i-PrOH (2-propanol), K2CO3 (potassium carbonate), LC (Liquid Chromatography), MeOH (methanol), MgSO4 (magnesium sulfate), MS (mass spectrometry), MTBE (Methyl tert-butyl ether), NaHCO3 (sodium bicarbonate), NaBH4 (sodium borohydride), NMM (N-methyl morpholine), NMR (Nuclear Magnetic Resonance), PyBOP (benzotriazole-1-yl-oxy-trispyrrolidino-phosphonium hexafluorophosphate), RT (room temperature), Rt (retention time), SPE (solid phase extraction), TBTU (2-(1-H-benzotriazole-1-yl)-1,1,3,3-tetramethyluromium tetrafluoro borate), TEA (triethylamine), TFA (trifluoroacetic acid), THF (tetrahydrofuran), TLC (Thin Layer Chromatography), UV (Ultraviolet). Description of the In Vitro Assays Abbreviations: GST=Glutathione-S-transferase FRET=Fluorescence resonance energy transfer HTRF®=(homogenous time resolved fluorescence) HEPES=4-(2-hydroxyethyl)-1-piperazine ethanesulfonic acid buffer DTT=Dithiothreitol BSA=bovine serum albumin CHAPS=detergent; CHAPS=3[(3-cholamidopropyl)dimethylammonio]-1-propanesulfonate Biochemical Activity Testing of Human Fatty Acid Synthase FASN
Fatty acid synthase FASN is a multifunctional enzyme with seven catalytic activities thereby synthesising long chain fatty acids especially palmitoyl-CoA in the presence of co-factor NADPH starting from the substrates acetyl-CoA and malonyl-CoA. The reductive synthesis is realized by the oxidation of NADPH to NADP. Since NADPH has a high fluorescence intensity quantum yield compared to NADP with excitation at 340 nm and emission at 460 nm, the reaction can be monitored via the decrease in fluorescence intensity. The biochemical FASN activity testing was performed as 384 well two-time-point kinetic fluorescence intensity assay format in Greiner low volume medium binding 384-well black microtiter plates in a total assay volume of 8 μl and was used for high throughput screen. In each well 3 μl 40 nM human recombinant full-length fatty acid synthase (produced in-house in SF9 cells) were dispensed in the following assay buffer: 50 mM potassium phosphate buffer pH 7.0, 0.005% (w/v) BSA, 2 mM Glutathione, 0.02% Tween-20. Then 2 μl of 200 μM NADPH in assay buffer were added, followed by the addition of the test compounds in 10 dilution concentrations starting with 30 μM (final concentration) to get a final DMSO content of 1% (v/v). The mixture was incubated for at least 15 min at room temperature. After the pre-incubation the enzymatic reaction was started by the addition of 2 μl substrate solution (80 μM acetyl-CoA, 240 μM malonyl-CoA). A first fluorescence intensity measurement (time point one) was performed with an Envision multimode reader (Perkin Elmer LAS Germany GmbH) at excitation wavelength 340 nm (lamp mode) and emission wavelength 460 nm. The reaction was incubated for 30 minutes at room temperature. After this the fluorescence intensity was measured again in the Envision using the same parameters as described above (second time point measurement). The data were analysed by subtracting the first time point measurement value from the second time point measurement value (after the enzymatic reaction). The differences of the emission signals were determined. […]
For orientation: IC50 means the midpoint of a concentration-inhibition curve. On to `CCNC(=O)C1CC[C@@H](N(C)C(=O)c2ccc(-c3nc4cccc(F)c4o3)cc2)C1` (stereo in doubt) [Compound A100, N-((1R,3S)-3-ethylcarbamoyl-cyclopentyl)-4-(7-fluoro-benzooxazol-2-yl)-N-methyl-benzamide], for which the IC50 was less than 300 nM.

Consider `CCNC(=O)[C@H]1CC[C@@H](N(C)C(=O)c2ccc(-c3nc4ccccc4o3)cc2)C1` [Compound A1, 4-(1,3-benzoxazol-2-yl)-N-[(1R,3S)-3-(ethylcarbamoyl)cyclopentyl]-N-methyl-benzamide], for which the IC50 is less than 300 nM.

Consider `CCNC(=O)[C@H]1CC[C@@H](N(C)C(=O)c2ccc(-c3nc4ccccc4n3C)cc2)C1` [Compound A2, N-((1R,3S)-3-ethylcarbamoyl-cyclopentyl)-N-methyl-4-(1-methyl-1H-benzoimidazol-2-yl)-benzamide], for which the half-maximal inhibitory concentration (IC50) is less than 300 nM.

For `CCNC(=O)[C@H]1CC[C@@H](N(C)C(=O)c2ccc(-c3ccc(O[C@@H]4CCOC4)cc3)cc2)C1` [Compound A4, 4′-[(R)-(tetrahydro-furan-3-yl)oxy]-biphenyl-4-carboxylic acid ((1R,3S)-3-ethylcarbamoyl-cyclopentyl)-methyl-amide], the IC50 lay in the range of 300 to 3000 nM.

For `CC(C)NC(=O)[C@H]1CC[C@@H](N(C)C(=O)c2ccc(-c3nc4ccccc4o3)cc2)C1` [Compound A5, 4-benzoxazol-2-yl-N-((1R,3S)-3-isopropylcarbamoyl-cyclopentyl)-N-methyl-benzamide], the IC50 was less than 300 nM.

With `CN(C(=O)c1ccc(-c2nc3ccccc3o2)cc1)[C@@H]1CC[C@H](C(=O)NC2CC2)C1` [Compound A6, 4-benzoxazol-2-yl-N-((1R,3S)-3-cyclopropylcarbamoyl-cyclopentyl)-N-methyl-benzamide], the IC50 was less than 300 nM.

As to `CN(C(=O)c1ccc(-c2nc3ccccc3o2)cc1)[C@@H]1CC[C@H](C(=O)NC2CCCC2)C1` [Compound A7, 4-benzoxazol-2-yl-N-((1R,3S)-3-cyclopentylcarbamoyl-cyclopentyl)-N-methyl-benzamide], the IC50 is less than 300 nM.

Take `CCNC(=O)[C@H]1CC[C@@H](N(C)C(=O)c2ccc(-c3nc4ccccc4[nH]3)cc2)C1` [Compound A11, 4-(1H-benzimidazol-2-yl)-N-[(1R,3S)-3-(ethylcarbamoyl)cyclopentyl]-N-methyl-benzamide]: the IC50 was less than 300 nM.

For `CCNC(=O)[C@@H]1CC[C@@H](N(C)C(=O)c2ccc(-c3nc4ccccc4o3)cc2)C1` [Compound A44, 4-(1,3-benzoxazol-2-yl)-N-[(1R,3R)-3-(ethylcarbamoyl)cyclopentyl]-N-methyl-benzamide], the IC50 is less than 300 nM.

For `CCNC(=O)[C@H]1CC[C@@H](N(C)C(=O)c2ccc(-c3nc4ccccc4o3)c(OC)c2)C1` [Compound A45, 4-benzoxazol-2-yl-N-((1R,3S)-3-ethylcarbamoyl-cyclopentyl)-3-methoxy-N-methyl-benzamide], the IC50 is less than 300 nM.

Consider `CCNC(=O)[C@H]1CC[C@@H](N(C)C(=O)c2ccc(-c3nc4ccccc4o3)cc2OC)C1` [Compound A46, 4-benzoxazol-2-yl-N-((1R,3S)-3-ethylcarbamoyl-cyclopentyl)-2-methoxy-N-methyl-benzamide], for which the half-maximal inhibitory concentration (IC50) is less than 300 nM.

Take `CCN(C)C(=O)[C@H]1CC[C@@H](N(C)C(=O)c2ccc(-c3nc4ccccc4o3)cc2)C1` [Compound A47, 4-benzoxazol-2-yl-N-[(1R,3S)-3-(ethyl-methyl-carbamoyl)-cyclopentyl]-N-methyl-benzamide]: the half-maximal inhibitory concentration (IC50) fell in the range of 300 to 3000 nM.

As for `CCN(CC)C(=O)[C@H]1CC[C@@H](N(C)C(=O)c2ccc(-c3nc4ccccc4o3)cc2)C1` [Compound A48, 4-benzoxazol-2-yl-N-((1R,3S)-3-diethylcarbamoyl-cyclopentyl)-N-methyl-benzamide], the IC50 was 300 to 3000 nM.

For the compound `CCNC(=O)[C@H]1CC[C@@H](N(C)C(=O)c2ccc(-c3ccc(C)cc3)cc2)C1` [Compound A49, 4′-methyl-biphenyl-4-carboxylic acid ((1R,3S)-3-ethylcarbamoyl-cyclopentyl)-methyl-amide], the IC50 was less than 300 nM.

With `CCNC(=O)[C@H]1CC[C@@H](N(C)C(=O)c2ccc(-c3ccccc3)cc2)C1` [Compound A50, biphenyl-4-carboxylic acid ((1R,3S)-3-ethylcarbamoyl-cyclopentyl)-methyl-amide], the IC50 was less than 300 nM.

As for `CCNC(=O)[C@H]1CC[C@@H](N(C)C(=O)c2ccc(-c3ccccc3)cc2Cl)C1` [Compound A51, 3-chloro-biphenyl-4-carboxylic acid ((1R,3S)-3-ethylcarbamoyl-cyclopentyl)-methyl-amide], the IC50 was less than 300 nM.

Turning to `CCNC(=O)[C@H]1CC[C@@H](N(C)C(=O)c2ccc(-c3nnc(OC)cc3C)cc2)C1` [Compound A52, N-((1R,3S)-3-ethylcarbamoyl-cyclopentyl)-4-(6-methoxy-4-methyl-pyridazin-3-yl)-N-methyl-benzamide], the IC50 was in the range of 3000 to 50000 nM.

In the case of `CCNC(=O)[C@H]1CC[C@@H](N(C)C(=O)c2ccc(-c3ccccc3)cn2)C1` [Compound A53, 5-phenyl-pyridine-2-carboxylic acid ((1R,3S)-3-ethylcarbamoyl-cyclopentyl)-methyl-amide], the IC50 is less than 300 nM.

Regarding `CCNC(=O)[C@H]1CC[C@@H](N(C)C(=O)c2ccc(C#Cc3ccc(Cl)cc3)cc2)C1` [Compound A54, 4-(4-chloro-phenylethynyl)-N-((1R,3S)-3-ethylcarbamoyl-cyclopentyl)-N-methyl-benzamide], the IC50 was less than 300 nM.

With `CCNC(=O)[C@H]1CC[C@@H](N(C)C(=O)c2ccc(C#Cc3ccc(F)cc3)cc2)C1` [Compound A55, N-((1R,3S)-3-ethylcarbamoyl-cyclopentyl)-4-(4-fluoro-phenylethynyl)-N-methyl-benzamide], the IC50 was less than 300 nM.

In the case of `CCNC(=O)[C@H]1CC[C@@H](N(C)C(=O)c2ccc(-c3ccncc3)cc2)C1` [Compound A56, N-((1R,3S)-3-ethylcarbamoyl-cyclopentyl)-N-methyl-4-pyridin-4-yl-benzamide], the IC50 is less than 300 nM.

On to `CCNC(=O)[C@H]1CC[C@@H](N(C)C(=O)c2ccc(-c3ccncc3)cc2F)C1` [Compound A57, N-((1R,3S)-3-ethylcarbamoyl-cyclopentyl)-2-fluoro-N-methyl-4-pyridin-4-yl-benzamide], for which the IC50 is less than 300 nM.

With `CCNC(=O)[C@H]1CC[C@@H](N(C)C(=O)c2c(F)cc(-c3ccc(CC)cc3)cc2F)C1` [Compound A58, 4′-ethyl-3,5-difluoro-biphenyl-4-carboxylic acid ((1R,3S)-3-ethylcarbamoyl-cyclopentyl)-methyl-amide], the IC50 is less than 300 nM.

For `CCNC(=O)[C@H]1CC[C@@H](N(C)C(=O)c2ccc(-c3ccccc3S(C)(=O)=O)cc2)C1` [Compound A59, 2′-methanesulfonyl-biphenyl-4-carboxylic acid ((1R,3S)-3-ethylcarbamoyl-cyclopentyl)-methyl-amide], the IC50 is less than 300 nM.

For the compound `CCNC(=O)[C@H]1CC[C@@H](N(C)C(=O)c2ccc(-c3ccccc3S(=O)(=O)NC(C)(C)C)cc2)C1` [Compound A60, 2′-tert-butylsulfamoyl-biphenyl-4-carboxylic acid ((1R,3S)-3-ethylcarbamoyl-cyclopentyl)-methyl-amide], the IC50 is 3000 to 50000 nM.

For the compound `CCNC(=O)[C@H]1CC[C@@H](N(C)C(=O)c2ccc(-c3ccccc3S(N)(=O)=O)cc2)C1` [Compound A61, 2′-sulfamoyl-biphenyl-4-carboxylic acid ((1R,3S)-3-ethylcarbamoyl-cyclopentyl)-methyl-amide], the IC50 is less than 300 nM.
